Assay results taken from the Kinase Knowledgebase extract (Sharma et al. 2016).

These molecules were tested against ROCK2 (human) (UniProt O75116) (assay: Inhibition of ROCK2 Kinase Activity). Settings: not given.
Chain of ROCK2 (human) (O75116 whole entry, looked up): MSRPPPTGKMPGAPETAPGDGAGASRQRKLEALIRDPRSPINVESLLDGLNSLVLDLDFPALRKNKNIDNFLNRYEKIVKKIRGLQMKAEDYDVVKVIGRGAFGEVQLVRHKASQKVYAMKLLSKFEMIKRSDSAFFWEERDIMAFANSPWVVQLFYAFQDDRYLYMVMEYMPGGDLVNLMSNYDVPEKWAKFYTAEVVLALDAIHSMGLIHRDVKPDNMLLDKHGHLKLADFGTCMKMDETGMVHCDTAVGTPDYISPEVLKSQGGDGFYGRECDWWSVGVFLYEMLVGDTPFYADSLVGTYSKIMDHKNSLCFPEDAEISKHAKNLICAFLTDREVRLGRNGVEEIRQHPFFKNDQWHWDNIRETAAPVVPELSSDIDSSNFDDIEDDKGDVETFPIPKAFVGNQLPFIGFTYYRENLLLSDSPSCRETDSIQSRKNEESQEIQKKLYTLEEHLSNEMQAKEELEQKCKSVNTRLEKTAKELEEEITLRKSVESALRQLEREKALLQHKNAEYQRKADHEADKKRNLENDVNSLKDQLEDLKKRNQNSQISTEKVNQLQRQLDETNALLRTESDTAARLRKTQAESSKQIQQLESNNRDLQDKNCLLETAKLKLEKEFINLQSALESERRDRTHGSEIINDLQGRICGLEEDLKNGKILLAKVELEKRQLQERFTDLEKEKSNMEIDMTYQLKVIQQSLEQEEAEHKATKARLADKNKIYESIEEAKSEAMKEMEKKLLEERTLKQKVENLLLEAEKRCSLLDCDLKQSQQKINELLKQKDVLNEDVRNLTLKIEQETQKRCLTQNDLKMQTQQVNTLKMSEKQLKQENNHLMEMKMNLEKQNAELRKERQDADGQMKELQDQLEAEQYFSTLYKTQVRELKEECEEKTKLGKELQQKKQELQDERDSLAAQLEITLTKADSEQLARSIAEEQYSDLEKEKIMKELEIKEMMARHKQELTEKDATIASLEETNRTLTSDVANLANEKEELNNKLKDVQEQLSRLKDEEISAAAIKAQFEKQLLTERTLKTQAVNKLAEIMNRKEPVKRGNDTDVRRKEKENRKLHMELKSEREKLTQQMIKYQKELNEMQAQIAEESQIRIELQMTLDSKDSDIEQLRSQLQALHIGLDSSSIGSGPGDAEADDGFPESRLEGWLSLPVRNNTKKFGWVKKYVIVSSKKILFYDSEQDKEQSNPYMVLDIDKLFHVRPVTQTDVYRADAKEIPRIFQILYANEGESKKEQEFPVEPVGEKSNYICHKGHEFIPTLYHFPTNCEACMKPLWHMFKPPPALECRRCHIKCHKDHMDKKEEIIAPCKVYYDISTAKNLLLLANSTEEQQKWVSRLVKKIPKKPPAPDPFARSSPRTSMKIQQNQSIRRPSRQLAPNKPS
In the case of C=CC[C@@H](N)[C@H]1CC[C@H](C(=O)Nc2ccncc2)CC1, the IC50 is reported as 1.9 µM.
Work on CCCCCCCCN(N)[C@H]1CC[C@H](C(=O)Nc2ccncc2)CC1 yielded an IC50 of 6.5 µM.

Same assay, conditions: concentration not given here
Molecule NN(Cc1ccccc1)[C@H]1CC[C@@H](C(=O)Nc2ccncc2)CC1 has an inhibition of 32%.
CCCN(N)[C@H]1CC[C@@H](C(=O)Nc2ccncc2)CC1 gave an inhibition of 19%.
NN(CCc1ccccc1)[C@H]1CC[C@H](C(=O)Nc2ccncc2)CC1 showed an inhibition of 46%.
C=CC[C@H](N)[C@H]1CC[C@H](C(=O)Nc2ccncc2)CC1 showed an inhibition of 63%.
With CC(C)N(N)[C@H]1CC[C@@H](C(=O)Nc2ccncc2)CC1 the inhibition was 25%.
Work on NN(C/C=C/c1ccccc1)[C@H]1CC[C@H](C(=O)Nc2ccncc2)CC1 yielded an inhibition of 49%.
CN(N)[C@H]1CC[C@@H](C(=O)Nc2ccncc2)CC1 was tested, and the inhibition was 33%.
For CC(C)CCN(N)[C@H]1CC[C@@H](C(=O)Nc2ccncc2)CC1, the inhibition was 13%.
Work on C=CCC(NCc1ccccc1)[C@H]1CC[C@H](C(=O)Nc2ccncc2)CC1 (stereo partly drawn) yielded an inhibition of 44%.
CCCN(N)[C@H]1CC[C@H](C(=O)Nc2ccncc2)CC1 was tested, and the inhibition was 45%.
Molecule NN(CC(c1ccccc1)c1ccccc1)[C@H]1CC[C@H](C(=O)Nc2ccncc2)CC1 has an inhibition of 45%.
For CN(N)[C@H]1CC[C@H](C(=O)Nc2ccncc2)CC1, the inhibition was 63%.
Molecule C=CC[C@@H](N)[C@H]1CC[C@H](C(=O)Nc2ccncc2)CC1 has an inhibition of 81%.
CCCCCCCCN(N)[C@H]1CC[C@H](C(=O)Nc2ccncc2)CC1 showed an inhibition of 53%.
Work on NN(Cc1ccccc1)[C@H]1CC[C@H](C(=O)Nc2ccncc2)CC1 yielded an inhibition of 61%.
Work on CC(C)CCN(N)[C@H]1CC[C@H](C(=O)Nc2ccncc2)CC1 yielded an inhibition of 43%.
In the case of NN(Cc1ccc(OCc2ccccc2)cc1)[C@H]1CC[C@H](C(=O)Nc2ccncc2)CC1, the inhibition is reported as 59%.
For CC(C)N(N)[C@H]1CC[C@H](C(=O)Nc2ccncc2)CC1, the inhibition was 45%.
Work on NN(CC1CCCCC1)[C@H]1CC[C@H](C(=O)Nc2ccncc2)CC1 yielded an inhibition of 40%.
Work on C=CCC(N)[C@H]1CC[C@H](C(=O)Nc2ncnc3[nH]cnc23)CC1 (stereo partly drawn) yielded an inhibition of 0%.
C=CCC(NC)[C@H]1CC[C@H](C(=O)Nc2ccncc2)CC1 (stereo partly drawn) gave an inhibition of 45%.
